US20130230486A1, “COMPOSITIONS AND METHODS TO INDUCE TARGETED APOPTOSIS” (priority 2010, published 2013)

Legend:
[1] = system: caspase-8; experiment: Caspase-8 activation (Fas-induced apoptosis) in lung fibroblasts; format: cell-based, human; settings: MRC5
Protocol: To assess the effects of these cytokines on PTPN13 expression, non-diseased normal human lung fibroblasts (NHLF), fibrotic human lung fibroblasts (FHLF) and a fetal lung fibroblast cell line, MRC5 cells, were treated with TNF-α (10/ng/ml), IFN-γ (50 U/ml) or with both cytokines for 6 hours. PTPN13 expression was measured by quantitative PCR (FIG. 2A). The primary lung fibroblasts from normal and fibrotic lung had equivalent levels of PTPN13 expression to the MRC5 lung fibroblast cell line. […] Treatment with TNF-α alone caused a 40% decrease in PTPN13 expression. Combined exposure to TNF-α and IFN-γ decreased PTPN13 mRNA expression by 80%. Protein lysates from normal, fibrotic and MRC5 fibroblasts treated for 36 hours with TNF-α (10/ng/ml), IFN-γ (50 U/ml) or with both cytokines were then analyzed for PTPN13 expression. […]
In one exemplary method, to assess whether PTPN13 expression prevents Fas-induced apoptosis, PTPN13 expression was knocked-down using siRNA. […] Apoptosis was assayed by quantifying activation of caspase-3 and caspase-8 (FIG. 3C).
In death-receptor mediated apoptosis, formation of the DISC (Death-Inducing Signaling Complex) is essential for the initiation of apoptosis. […] The cells were lysed, immunoprecipitated with anti-Fas antibody, and co-immunoprecipitated FADD and caspase-8 were detected by immunoblotting. […]

[2] = system: Fas phospho-Y291; experiment: Tyrosine phosphorylation of Fas at tyrosine 291 by Western blot in MRC5 lung fibroblasts; format: cell-based, human; settings: pervanadate 150 μM, time dependent
Protocol: PTPN13 has been shown in astrocytoma cells to dephosphorylate Fas at tyrosine 291. Little is known about the regulatory function of tyrosine phosphorylation of Fas. In another exemplary embodiment, to assess the effect of TNF-α and IFN-γ sensitization on the levels of Fas tyrosine phosphorylation, MRC5 lung fibroblasts were treated with TNF-α and IFN-γ for increasing amounts of time. Because TNF-α is known to increase tyrosine phosphorylation of many proteins, such as MAP kinases and AKT, within minutes following stimulation, the kinetics of TNF-α and IFN-γ induced tyrosine phosphorylation of Fas were assessed. MRC5 lung fibroblasts were treated with TNF-α (10 ng/ml) and IFN-γ (50 U/ml) for up to 48 hours. The cells were lysed and analyzed by western blot for phosphorylated Fas, using a phospho-specific antibody for Fas phosho-Y291. TNF-α and IFN-γ increased tyrosine phosphorylation of Fas at tyrosine residue 291 beginning at 18 hours. […] The pervanadate treated MRC5 cells were lysed and analyzed the tyrosine phosphorylation of Fas by western blotting. […] We then detected phosphorylated Fas by Western blot, using a phospho-specific antibody for Fas tyrosine residue 291. […]
FIG. 5: Inhibition of tyrosine phosphatase activity sensitizes lung fibroblasts to Fas-induced apoptosis. […] Caspase-8 activation was measured by a fluorescence based assay. […]

Substance: pervanadate
- caspase-8 activity over unstimulated cells ([1]; 150 μM pervanadate 2 hour pre-treatment, then Fas-activating antibody 250 ng/ml): 6 fold
- caspase-8 activity above untreated cells ([1]; 150 μM pervanadate alone): 2 fold
- tyrosine phosphorylation of Fas (Y291) [2]: increased
